Where a name gives a salt, the structure may show the parent alone.
Experiments:
[1] = test system: explorations in the escape enclosure; test: Sedative: reduction of number of explorations in the escape enclosure; assay type: in vivo; details: 100 mg/Kg/p.o., mouse
Procedure: The compounds of formula (I), administered by oral means to the mouse, reduce the number of explorations in the escape enclosure.
By way of example, the following Table VIII lists the results obtained by the administration of 100 mg/Kg/p.o. of different compounds of formula (I).

[2] = test system: painful stretchings caused by the intraperitoneal injection of acetic acid; test: Analgesic: reduction of painful stretchings caused by intraperitoneal acetic acid, oral, mouse; assay type: in vivo; details: 100 mg/Kg/p.o.
Procedure: The compounds of formula (I), administered by oral means to the mouse, are capable of reducing the number of painful stretchings caused by the intraperitoneal injection of acetic acid.
By way of example, the following Table III lists the results obtained by administration of 100 mg/Kg/p.o. of different compounds of formula (I).

[3] = Lethal doses / percentage mortality, oral; assay type: in vivo; details: for Percentage mortality: 2 000 mg/Kg/p.o., 2000 mg/kg
Text: As a result of a comparison between the pharmacologically active doses mentioned above and the lethal doses listed in the following Table XII, the difference between said doses is sufficiently great to permit the utilisation of the compounds of formula (I) in therapeutics.

[4] = test system: isolated heart of a guinea-pig; test: Vasodilatatory: coronary flow of isolated heart; details: 1 μg/ml in perfusion liquid
Procedure: The compounds of formula (I) are capable of augmenting the flow of the coronary vessels of the isolated heart of a guinea-pig when said compounds are added in the perfusion liquid of said organ.
By way of example, there can be found in the following Table X, the percentage augmentation of the flow of the isolated heart of a guinea-pig by adding different compounds of formula (I) to the perfusion liquid, in a concentration of 1 μg/ml.

[5] = test system: bronchoconstriction provoked in the guinea-pig by acetylcholine; test: Antibronchoconstrictive and anticholinergic: bronchoconstriction by intravenous acetylcholine, Konzett method; assay type: in vivo
Text: Injected by intraveinous or intraduodenal means, the compounds of formula (I) are capable of opposing the bronchoconstriction provoked in the guinea-pig by the itraveinous injection of acetylcholine by the Konzett method.
By way of example, the following Table VII lists the results obtained by the administration of different compounds of formula (I)

[6] = test system: gastric secretion measured after Shay ligature; test: Gastric antisecretory: reduction of gastric secretion after Shay ligature, rat; assay type: in vivo; details: 50 mg/Kg/i.d.
Procedure: Administered by intraduodenal means to a rat, the compounds of formula (I) are capable of reducing the gastric secretion measured after Shay ligature.
By way of example, the following Table V gives the results obtained by administration of 50 mg/Kg/i.d. of different compounds of formula (I).

[7] = test system: gastric ulcers, provoked in a rat by tying of the pylorus (Shay ulcers); test: Antiulcerous: reduction of Shay ulcers (tying of the pylorus); assay type: in vivo; details: 50 mg/Kg/i.d.
Procedure: The compounds of formula (I) administered by intraduodenal means reduce the extent of gastric ulcers, provoked in a rat by tying of the pylorus (Shay ulcers).
By way of example, there is listed in the following Table IX, the results obtained by the administrations of 50 mg/Kg/i.d. of different compounds of formula (I).

[8] = test system: oedema caused by the sub-plantar injection of carraghenin; test: Antiinflammatory: reduction of sub-plantar oedema caused by carraghenin, rat; assay type: in vivo; details: 100 mg/Kg/p.o.
Procedure: These properties are shown by a diminution of the local oedema caused by the sub-plantar injection of a phlogogenic agent, such as carraghenin, in the rat following the oral administration of compounds of formula (I).
The following Table VI lists, by way of example, the percentage reduction of the oedems caused by the sub-plantar injection of carraghenin, resulting from the administration of 100 mg/Kg/p.o. of different compounds of formula (I).

[9] = test system: rat suffering from high blood pressure; test: Antihypertensive: return of systolic arterial pressure to normal in rats with high blood pressure; assay type: in vivo
Text: The compounds of formula (I), administered by oral means to a rat suffering from high blood pressure, are capable of lowering the systolic arteriel pressure.
By way of example, there is provided in the following Table IV the results obtained by administration of different compounds of formula (I).

[10] = test system: excursions into the escape enclosure; test: Central nervous system stimulation: excursions in the escape test; assay type: in vivo; details: 100 mg/Kg/p.o., mouse
Procedure: The compounds of formula (I), administered by oral means to the mouse, provoke an augmentation of the number of excursions into the escape enclosure.
Thus, following the administration of 100 mg/Kg/p.o. of the compounds of Code Nos. 72 457 and 72 736, an augmentation of 30% in the number of excursions in the escape test, is observed.

[11] = test system: isolated duodenum of the rat; test: Spasmolytic: opposing barium chloride contraction of isolated duodenum; details: papaverine as standard
Procedure: The compounds of formula (I), introduced in the conserving medium are capable of opposing the contractural action of barium chloride on the isolated duodenum of the rat. This activity is evaluated by taking papaverine as standard.

[12] = test system: volume of urine emitted; test: Diuretic: augmentation of urinary elimination; assay type: in vivo; details: 25 mg/Kg/p.o., mouse, 6 hours
Procedure: The compounds of formula (I), administered by oral means to the mouse, simultaneously with a volume of 1 ml. of an isotonic solution of sodium chloride per 25 g of the corporeal weight of the mouse, are capable of provoking an augmentation of the volume of urine emitted by reference to control animals, the volume being measured for 6 hours following administration.
By way of example, the following Table XI lists the results obtained by the administration of 25 mg/Kg/p.o. of different compounds of formula (I).

CN(C)Cc1nc2ccccc2n1CCC(=O)c1ccc(F)cc1.O=C(O)/C=C\C(=O)O [72 663]
Percentage reduction of number of explorations in the escape enclosure [1]: 30% | Percentage reduction of number of painful stretchings [2]: 60%

Cc1ccc(C(=O)CCn2c(CN3CCOCC3)nc3ccccc32)cc1 [72 478]
Percentage mortality [3]: 0% | Percentage augmentations of flow of isolated heart of a guinea-pig [4]: 50%

CCCCOc1ccc(C(=O)CCn2c(CN(CC)CC)nc3ccccc32)cc1 [72 727]
Percentage inhibition of bronchoconstriction ([5]; 100 mg/kg/i.d.): 100%

O=C(CCn1c(CN2CCCC2)nc2ccccc21)c1ccccc1 [72 493]
Percentage reductions in volume of gastric secretion [6]: 25%

COc1ccc(C(=O)CCn2c(CN3CCCCC3)nc3ccccc32)cc1OC [72 377]
Percentage mortality [3]: 0% | Percentage reduction of number of explorations in the escape enclosure [1]: 30% | Percentage reduction of Shay ulcers [7]: 55%

O=C(CCn1c(CN2CCOCC2)nc2ccccc21)c1ccc(F)cc1.O=C(O)/C=C\C(=O)O [72 526]
Percentage reduction of sub-plantar oedema [8]: 55% | Percentage inhibition of bronchoconstriction ([5]; 100 mg/kg/i.d.): 75% | Percentage of rats with high blood pressure whose systolic arteriel pressure is returned to normal ([9]; 100 mg/Kg/p.o.): 75% | Percentage reduction of Shay ulcers [7]: 40%

CCN(CC)Cc1nc2ccccc2n1CCC(=O)c1ccc(C)cc1.O=C(O)/C=C\C(=O)O [72 574]
Percentage reduction of number of painful stretchings [2]: 45% | Percentage reduction of Shay ulcers [7]: 45%

COc1ccc(C(=O)CCn2c(CN(C)C)nc3ccccc32)cc1OC [72 490]
Percentage augmentations of flow of isolated heart of a guinea-pig [4]: 140% | Percentage reduction of Shay ulcers [7]: 30%

CCN(CC)Cc1nc2ccccc2n1CCC(=O)c1ccc(Cl)cc1 [72 390]
Percentage reduction of sub-plantar oedema [8]: 60% | Percentage mortality [3]: 0% | Percentage reduction of Shay ulcers [7]: 40%

O=C(CCn1c(CN2CCCCC2)nc2ccccc21)c1ccc(F)cc1 [72 487]
Percentage inhibition of bronchoconstriction ([5]; 100 mg/kg/i.d.): 60% | Percentage reductions in volume of gastric secretion [6]: 40% | Percentage reduction of number of painful stretchings [2]: 80%

CCN(CC)Cc1nc2ccccc2n1CCC(=O)c1ccc(C)cc1C.O=C(O)/C=C\C(=O)O [72 736]
augmentation in the number of excursions in the escape test [10]: 30% | Percentage inhibition of bronchoconstriction ([5]; 10 mg/kg/i.v.): 90% | spasmolytic activity relative to papaverine [11]: equivalent spasmolytic actvity to that of papaverine | Percentage reduction of Shay ulcers [7]: 30%

Cc1ccc(C(=O)CCn2c(CN(C)C)nc3ccccc32)c(C)c1 [72 712]
Percentage reduction of sub-plantar oedema [8]: 70% | Percentage mortality [3]: 0% | Percentage reduction of number of explorations in the escape enclosure [1]: 40% | Percentage reduction of Shay ulcers [7]: 55%

CCN(CC)Cc1nc2ccccc2n1CCC(=O)c1ccccc1 [72 573, 1-(2'-benzoylethyl maleate)-2-diethylaminomethyl benzimidazole]
Percentage inhibition of bronchoconstriction ([5]; 5 mg/kg/i.v.): 100% | mortality ([3]; in vivo, po, 1 250 mg/Kg/p.o.): ~50% | spasmolytic activity relative to papaverine [11]: equivalent spasmolytic actvity to that of papaverine

COc1cc(C(=O)CCn2c(CN3CCOCC3)nc3ccccc32)cc(OC)c1OC.O=C(O)/C=C\C(=O)O [72 525]
Percentage inhibition of bronchoconstriction ([5]; 100 mg/kg/i.d.): 80% | Percentage of rats with high blood pressure whose systolic arteriel pressure is returned to normal ([9]; 200 mg/Kg/p.o.): 50%

Cc1ccc(C(=O)CCn2c(CN3CCOCC3)nc3ccccc32)c(C)c1 [72 447]
Percentage reduction of sub-plantar oedema [8]: 40% | Percentage augmentation of urinary elimination [12]: 70% | Percentage inhibition of bronchoconstriction ([5]; 100 mg/kg/i.d.): 50% | Percentage mortality [3]: 0% | Percentage reduction of Shay ulcers [7]: 35%

From patent US3962256A, “2-Aminomethyl benzimidazole derivatives” (Delalande S.A., priority 1973, dated 1976)
